Experiment: Multiple-dose PK of API-in-capsule formulation BID for 10 days in healthy human subjects
Format: in vivo
Protocol: The mean CSF to unbound plasma ratio was about 1.0. Data shown is from 25, 80, and100 mg BID multiple dose cohorts.
Formula I compound was administered to healthy young human subjects as an API-in- capsule formulation at doses of 25 mg, 40 mg, 80 mg and 100 mg BID, and to healthy elder subjects at 80 mg BID. Formula I compound concentrations were determined on Day 1 and 10 and at trough on selected day during the 10 days of administration. […] The terminal half-life, and plasma concentrations and pS935 inhibition at trough (minima) are consistent with twice-daily administration as an efficacious regimen.
[…] variability in the ratio was seen because of the parallel (non-crossover) nature of the study design. […] Physiologically-based PK modelling, was used to predict the Cmax/Cmin ratio for MUPS formulations contain various amounts of KOLLICOAT® polymer.

## CNc1nc(Nc2cn(C(C)(C)C#N)nc2C)ncc1C(F)(F)F [Formula I compound, 2-methyl-2-(3-methyl-4-(4-(methylamino)-5-(trifluoromethyl)pyrimidin-2-ylamino)-1H-pyrazol-1-yl)propanenitrile]
25 to 100 mg BID dose range
  plasma Cmax and AUC versus dose: dose-proportional
human, CSF / unbound plasma, oral, healthy young and healthy elderly, Day 10, 25, 80 and 100 mg BID immediate release capsule, read-out: mean CSF to unbound plasma ratio
  Kp at 10 day: ~1
human, plasma, oral, postdose Day 10, 25-100 mg BID, read-out: terminal half-life in plasma
  half-life: 14 to 26 h

From US20220249479A1, “MODIFIED RELEASE FORMULATION OF A PYRIMIDINYLAMINO-PYRAZOLE COMPOUND, AND METHODS OF TREATMENT” (DENALI THERAPEUTICS INC., priority 2019, published 2022)
